Experimental data reported in patent publication US6982334B2, “Crystalline form of (3R,4R)-4-[3-(S)-hydroxy-3-(6-methoxyquinolin-4-yl)propyl]-1-[2-(2-thienylthio)ethyl]piperindine-3-carboxylic acid” (Aventis Pharma S.A., priority 2002, dated 2006).

What was measured:
[1] = Loss in mass (dehydration) of monohydrate form C at low humidity; type: physicochemical; details: below 50% humidity and between 20° C. and 80° C.; 1 mole of water/mole of the acid
Protocol: According to another aspect of the present invention, form A can also be obtained from another monohydrate crystalline form known hereinbelow as form C. Below 50% humidity and between 20° C. and 80° C., form C undergoes a loss in mass of 3.7% by weight (1 mole of water/mole of the acid). […] Form B is obtained more particularly by heating form C to 70° C. or from form C held at 25° C. at 0% humidity.

[2] = Stability at high temperature of the crystalline form; type: physicochemical; details: up to its melting point
[3] = type: physicochemical

loss in mass (dehydration to form B) [1]	hygroscopicity ([3]; solid crystalline form)	state after storage ([3]; storage at 97% relative humidity for 11 weeks at 20° C.)	Compound	stability at high temperature [2]
3.7 % by weight	–	–	COc1ccc2nccc([C@@H](O)CC[C@@H]3CCN(CCSc4cccs4)C[C@@H]3C(=O)O)c2c1 [Form C, (3R,4R)-4-[3-(S)-hydroxy-3-(6-methoxyquinolin-4-yl)propyl]-1-[2-(2-thienylthio)ethyl]piperidine-3-carboxylic acid]	–
–	not hygroscopic	still anhydrous and stable	COc1ccc2nccc([C@@H](O)CC[C@@H]3CCN(CCSc4cccs4)C[C@@H]3C(=O)O)c2c1 [Form A, (3R,4R)-4-[3-(S)-hydroxy-3-(6-methoxyquinolin-4-yl)propyl]-1-[2-(2-thienylthio)ethyl]piperidine-3-carboxylic acid]	stable at high temperature, namely up to its melting point
